Experimental data from patent US9145399B2, “Substituted bicyclic triazole derivatives as gamma secretase modulators” (Janssen Pharmaceuticals, Inc., priority 2010, dated 2015).
Counter-ions that a name gives are not always drawn.

Assays:
Aβ42 = assay: Screening for γ-secretase-modulating activity in SKNBE2 cells carrying APP 695 wild type: Aβ42 in cell supernatant (Alphalisa); assay type: cell-based; conditions: overnight incubation
Procedure: (§1) Pharmacology A) Screening of the Compounds of the Invention for γ-Secretase-Modulating Activity
(§2) Screening was carried out using SKNBE2 cells carrying the APP 695—wild type, grown in Dulbecco's Modified Eagle's Medium/Nutrient mixture F-12 (DMEM/NUT-mix F-12) (HAM) provided by Invitrogen (cat no. 10371-029) containing 5% Serum/Fe supplemented with 1% non-essential amino acids, 1-glutamine 2 mM, Hepes 15 mM, penicillin 50 U/ml (units/ml) en streptomycin 50 μg/ml. Cells were grown to near confluency.
(§3) The screening was performed using a modification of the assay as described in Citron et al (1997) Nature Medicine 3: 67. Briefly, cells were plated in a 384-well plate at 10^4 cells/well in Ultraculture (Lonza, BE12-725F) supplemented with 1% glutamine (Invitrogen, 25030-024), 1% non-essential amino acid (NEAA), penicillin 50 U/ml en streptomycin 50 μg/ml in the presence of test compound at different test concentrations. The cell/compound mixture was incubated overnight at 37° C., 5% CO2. The next day the media were assayed by two sandwich immuno-assays, for Aβ42 and Aβtotal.
(§4) Aβtotal and Aβ42 concentrations were quantified in the cell supernatant using the Aphalisa technology (Perkin Elmer). Alphalisa is a sandwich assay using biotinylated antibody attached to streptavidin coated donorbeads and antibody conjugated to acceptor beads. In the presence of antigen, the beads come into close proximity. The excitation of the donor beads provokes the release of singlet oxygen molecules that trigger a cascade of energy transfer in the acceptor beads, resulting in light emission. To quantify the amount of Aβ42 in the cell supernatant, monoclonal antibody specific to the C-terminus of Aβ42 (JRF/cAβ42/26) was coupled to the receptor beads and biotinylated antibody specific to the N-terminus of Aβ (JRF/AβN/25) was used to react with the donor beads. T quantify the amount of Aβtotal in the cell supernatant, monoclonal antibody specific to the N-terminus of Aβ (JRF/AβN/25) was coupled to the receptor beads and biotinylated antibody specific to the mid region of Aβ (biotinylated 4G8) was used to react with the donor beads.
(§5) To obtain the values reported in Table 3, the data are calculated as percentage of the maximum amount of amyloid Beta 42 measured in the absence of the test compound. The sigmoidal dose response curves were analyzed using non-linear regression analysis with percentage of the control plotted against the log concentration of the compound. A 4-parameter equation was used to determine the IC50.

Aβtotal = assay: Screening for γ-secretase-modulating activity in SKNBE2 cells carrying APP 695 wild type: Aβtotal in cell supernatant (Alphalisa); assay type: cell-based; conditions: overnight incubation
Procedure: as §1, §2, §3, §4, §5

[1] = Homo sapiens, SKNBE2, SKNBE2 cells carrying APP 695 wild type
[2] = SKNBE2 cells carrying APP 695 wild type

| IC50 (Aβ42; [1]) [nM] | IC50 (Aβtotal; Homo sapiens) [nM] | IC50 (Aβ42; [2]) [nM] | IC50 (Aβtotal) [nM] | SMILES |
| --- | --- | --- | --- | --- |
| 22 | > 10000 | – | – | COc1cc(Nc2nc3c(-c4ccc(F)cc4C(F)(F)F)cccn3n2)ccc1-n1cnc(C)n1 [Compound 4, 8-[4-fluoro-2-(trifluoromethyl)phenyl]-N-[3-methoxy-4-(3-methyl-1H-1,2,4-triazol-1-yl)phenyl]-[1,2,4]triazolo[1,5-a]pyridin-2-amine] |
| 18 | > 10000 | – | – | COc1cc(Nc2nc3n(n2)CCCC3c2ccc(F)cc2)ccc1-n1cnc(C)c1 (stereo not drawn) [Compound 5, 8-(4-fluorophenyl)-5,6,7,8-tetrahydro-N-[3-methoxy-4-(4-methyl-1H-imidazol-1-yl)phenyl]-[1,2,4]triazolo[1,5-a]pyridin-2-amine] |
| 9 | > 10000 | – | – | COc1cc(Nc2nc3c(-c4ccc(F)cc4C)nccn3n2)ccc1-n1cnc(C)c1 [Compound 10, 8-(4-fluoro-2-methylphenyl)-N-[3-methoxy-4-(4-methyl-1H-imidazol-1-yl)phenyl]-[1,2,4]triazolo[1,5-a]pyrazin-2-amine] |
| 363 | > 10000 | – | – | COc1nc(Nc2nc3n(n2)CCCC3c2ccc(F)cc2)ccc1-c1ccnc(C)c1 (stereo not drawn) [Compound 16, 8-(4-fluorophenyl)-5,6,7,8-tetrahydro-N-(2-methoxy-2′-methyl[3,4′-bipyridin]-6-yl)-[1,2,4]triazolo[1,5-a]pyridin-2-amine] |
| 295 | > 10000 | – | – | COc1nc(Nc2nc3n(n2)CCCC3c2ccccc2C(F)(F)F)ccc1-n1cnc(C)c1 (stereo not drawn) [Compound 17, 5,6,7,8-tetrahydro-N-[6-methoxy-5-(4-methyl-1H-imidazol-1-yl)-2-pyridinyl]-8-[2-(trifluoromethyl)phenyl]-[1,2,4]triazolo[1,5-a]pyridin-2-amine] |
| 112 | > 10000 | – | – | COc1nc(Nc2nc3n(n2)CCCC3c2ccccc2Cl)ccc1-n1cnc(C)c1 (stereo not drawn) [Compound 18, 8-(2-chlorophenyl)-5,6,7,8-tetrahydro-N-[6-methoxy-5-(4-methyl-1H-imidazol-1-yl)-2-pyridinyl]-[1,2,4]triazolo[1,5-a]pyridin-2-amine] |
| 4 | 3720 | – | – | COc1cc(Nc2nc3c(-c4ccc(F)cc4C)cccn3n2)ccc1-n1cnc(C)c1 [Compound 19, 8-(4-fluoro-2-methylphenyl)-N-[3-methoxy-4-(4-methyl-1H-imidazol-1-yl)phenyl]-[1,2,4]triazolo[1,5-a]pyridin-2-amine] |
| 115 | > 10000 | – | – | COc1cc(Nc2nc3cc(-c4ccccc4C(F)(F)F)ccn3n2)ccc1-n1cnc(C)c1 [Compound 21, N-[3-methoxy-4-(4-methyl-1H-imidazol-1-yl)phenyl]-7-[2-(trifluoromethyl)phenyl]-[1,2,4]triazolo[1,5-a]pyridin-2-amine] |
| 126 | > 10000 | – | – | Cc1ncoc1-c1ccc(Nc2nc3c(-c4ccccc4C(F)(F)F)cccn3n2)cc1 [Compound 24, N-[4-(4-methyl-5-oxazolyl)phenyl]-8-[2-(trifluoromethyl)phenyl]-[1,2,4]triazolo[1,5-a]pyridin-2-amine] |
| 14 | 8510 | – | – | COc1cc(Nc2nc3n(n2)CCCC3c2ccccc2Cl)ccc1-n1cnc(C)c1 (stereo not drawn) [Compound 27, 8-(2-chlorophenyl)-5,6,7,8-tetrahydro-N-[3-methoxy-4-(4-methyl-1H-imidazol-1-yl)phenyl]-[1,2,4]triazolo[1,5-a]pyridin-2-amine] |
| 4470 | > 10000 | – | – | COc1cc(N(C)c2nc3n(n2)CCCC3c2ccccc2C(F)(F)F)ccc1-n1cnc(C)c1 (stereo not drawn) [Compound 33, 5,6,7,8-tetrahydro-N-[3-methoxy-4-(4-methyl-1H-imidazol-1-yl)phenyl]-N-methyl-8-[2-(trifluoromethyl)phenyl]-[1,2,4]triazolo[1,5-a]pyridin-2-amine HCl] |
| – | – | 31 | > 10000 | COc1cccc(C2CCCn3nc(Nc4ccc(-n5cnc(C)c5)c(OC)c4)nc32)c1 (stereo not drawn) [Compound 35, 5,6,7,8-tetrahydro-N-[3-methoxy-4-(4-methyl-1H-imidazol-1-yl)phenyl]-8-(3-methoxyphenyl)-[1,2,4]triazolo[1,5-a]pyridin-2-amine.2HCl.H2O] |
| 501 | > 10000 | – | – | COc1cc(C(=O)Nc2nc3n(n2)CCCC3c2ccc(F)cc2)ccc1-n1cnc(C)c1 (stereo not drawn) [Compound 36, N-[8-(4-fluorophenyl)-5,6,7,8-tetrahydro[1,2,4]triazolo[1,5-a]pyridin-2-yl]-3-methoxy-4-(4-methyl-1H-imidazol-1-yl)-benzamide] |
| – | – | 39 | > 10000 | COc1cccc(C2CCCn3nc(Nc4ccc(-c5ccnc(C)c5)c(OC)c4)nc32)c1 (stereo not drawn) [Compound 40, 5,6,7,8-tetrahydro-N-[3-methoxy-4-(2-methyl-4-pyridinyl)phenyl]-8-(3-methoxyphenyl)-[1,2,4]triazolo[1,5-a]pyridin-2-amine.1.8 HCl.0.9H2O] |
| 145 | > 10000 | – | – | Cc1cc(-c2ccc(Nc3nc4n(n3)CCCC4c3ccccc3C(F)(F)F)cc2)c(C)cn1 (stereo not drawn) [Compound 45, N-[4-(2,5-dimethyl-4-pyridinyl)phenyl]-5,6,7,8-tetrahydro-8-[2-(trifluoromethyl)phenyl]-[1,2,4]triazolo[1,5-a]pyridin-2-amine] |
| 62 | > 10000 | – | – | COc1cc(Nc2nc3n(n2)CCC(c2ccccc2C(F)(F)F)C3)ccc1-n1cnc(C)c1 (stereo not drawn) [Compound 51, 5,6,7,8-tetrahydro-N-[3-methoxy-4-(4-methyl-1H-imidazol-1-yl)phenyl]-7-[2-(trifluoromethyl)phenyl]-[1,2,4]triazolo[1,5-a]pyridin-2-amine] |
| 123 | > 10000 | – | – | COc1cc(Nc2nc3n(n2)CCC(c2ccccc2C(F)(F)F)C3)ccc1-c1ccnc(C)c1 (stereo not drawn) [Compound 62, 5,6,7,8-tetrahydro-N-[3-methoxy-4-(2-methyl-4-pyridinyl)phenyl]-7-[2-(trifluoromethyl)phenyl]-[1,2,4]triazolo[1,5-a]pyridin-2-amine HCl] |
| 19 | 8130 | – | – | COc1cc(Nc2nc3c(-c4cc(C(F)(F)F)ccc4F)cccn3n2)ccc1-n1cnc(C)c1 [Compound 63, 8-[2-fluoro-5-(trifluoromethyl)phenyl]-N-[3-methoxy-4-(4-methyl-1H-imidazol-1-yl)phenyl]-[1,2,4]triazolo[1,5-a]pyridin-2-amine] |
| 23 | 4570 | – | – | COc1cc(NC(=O)c2nc3c(-c4ccccc4Cl)cccn3n2)ccc1-n1cnc(C)c1 [Compound 72, 8-(2-chlorophenyl)-N-[3-methoxy-4-(4-methyl-1H-imidazol-1-yl)phenyl]-[1,2,4]triazolo[1,5-a]pyridine-2-carboxamide] |
| 15 | 7410 | – | – | COc1cc(Nc2nc3c(-c4ccc(F)cc4)c(C)ccn3n2)ccc1-c1ccnc(C)c1 [Compound 74, 8-(4-fluorophenyl)-N-[3-methoxy-4-(2-methyl-4-pyridinyl)phenyl]-7-methyl-[1,2,4]triazolo[1,5-a]pyridin-2-amine] |
| 44 | > 10000 | – | – | Cc1cc(-c2ccc(Nc3nc4n(n3)CCOC4c3ccccc3C(F)(F)F)cc2)ccn1 (stereo not drawn) [Compound 85, 5,6-dihydro-N-[4-(2-methyl-4-pyridinyl)phenyl]-8-[2-(trifluoromethyl)phenyl]-8H-[1,2,4]triazolo[5,1-c][1,4]oxazin-2-amine] |
| 48 | > 10000 | – | – | Cc1cc(-c2ccc(Nc3nc4n(n3)CCOC4c3ccccc3C(F)(F)F)cc2F)ccn1 (stereo not drawn) [Compound 86, N-[3-fluoro-4-(2-methyl-4-pyridinyl)phenyl]-5,6-dihydro-8-[2-(trifluoromethyl)phenyl]-8H-[1,2,4]triazolo[5,1-c][1,4]oxazin-2-amine] |
| 36 | 9330 | – | – | Cc1cc(-c2ccc(Nc3nc4n(n3)CCOC4c3ccccc3Cl)cc2F)ccn1 (stereo not drawn) [Compound 88, 8-(2-chlorophenyl)-N-[3-fluoro-4-(2-methyl-4-pyridinyl)phenyl]-5,6-dihydro-8H-[1,2,4]triazolo[5,1-c][1,4]oxazin-2-amine] |
| 32 | 9120 | – | – | COc1cc(Nc2nc3n(n2)CCCC3c2ccc(C(F)(F)F)cc2)ccc1-c1ccnc(C)c1 (stereo not drawn) [Compound 89, 5,6,7,8-tetrahydro-N-[3-methoxy-4-(2-methyl-4-pyridinyl)phenyl]-8-[4-(trifluoromethyl)phenyl]-[1,2,4]triazolo[1,5-a]pyridin-2-amine] |
